Data on 80 molecules can be found in the METLIN SMRT retention time set (Domingo-Almenara et al. 2019).

The series can be described thus: gradient 5% acetonitrile 3 min, to 50% in 2 min, to 85% in 15 min, held 3 min, 100 µL/min. As to conditions: column: Zorbax Extend-C18 2.1 x 50 mm; eluents: water / acetonitrile, 0.1% formic acid. An outline of the steps:
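The mobile phases were water and acetonitrile, each with 0.1% formic acid, pumped at 100 μL/min through a Zorbax Extend-C18 column (2.1 × 50 mm, 1.8 μm). Pure standards were injected as mixtures of ~100 molecules and detected by a quadrupole time-of-flight mass spectrometer in positive and negative ionization mode. Retention time came from computationally picked adduct peaks, each inspected by hand.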
On to `COc1cc(CSc2nc(CC(=O)Nc3nccs3)cs2)cc(OC)c1`, for which the RP-LC retention time was 819 s.
Consider `O=C(CCC1CCCN(S(=O)(=O)c2ccc(F)cc2)C1)NC1CC1` (stereo not given), for which the RP-LC retention time amounted to 764 s.
For `CC(C)n1c(CC2CCN(C(=O)c3ccccc3Cl)C2)nc2cccnc21` (stereo not given) the value was 622 s; for `Cc1ccc(-c2nc(-c3cccc(-c4ccnn4C)c3)no2)c(C)c1`, 1330 s; for `COCCOc1ccc2c(n1)CCN(C(=O)Nc1cc(C)ccc1C)C2`, 873 s.
As to `Cc1nnc(-c2nnc(N3CCN(c4ccccn4)CC3)c3ccccc23)o1`, the RP-LC retention time was 611 s.
The molecule `O=C(Nc1ccccc1F)C1CCc2sc(C(=O)N3CCCC3)cc2C1` (stereo not given) had an RP-LC retention time of 761 s.
The molecule `CCN1C(=O)Cc2ccccc2C1C(=O)NCc1cccc(F)c1` (stereo not given) gave an RP-LC retention time of 744 s.
Take `COc1ccc2[nH]cc(CCNC(=O)c3ccc(NC(=O)C4=CSCCO4)cc3)c2c1`: the RP-LC retention time was found to be 800 s.
`COc1ccccc1NC(=O)N1CCCC1c1nc(-c2ccccc2)no1` (stereo not given): the RP-LC retention time is 1010 s.
`CCOC(=O)c1c(C)oc2ncnc(NCCN3CCN(c4cccc(Cl)c4)CC3)c12`: the RP-LC retention time turned out to be 860 s.
`CCCN1CCN(c2ccc(NC(=O)C3CCC3)c(C(=O)O)c2)CC1`: the RP-LC retention time came to 561 s.
For `Cc1csc(-n2nc(C)c(CC(=O)Nc3ccccc3F)c2C)n1` the value was 938 s; for `CCOC(=O)N1CCN(c2ncc(C(=O)Nc3ccc(OCC)cc3)c(N)n2)CC1`, 718 s; for `CCCNC(=O)Cc1c(C)nc2nc(-c3ccccc3)nn2c1C`, 704 s.
`COc1ccc(-c2noc(-c3ccc(NC(=O)c4ccc(Br)o4)cc3)n2)cc1` returned an RP-LC retention time of 1190 s.
For `Cc1cc(N2CCN(C(=O)Nc3ccc4c(c3)OCO4)CC2)nc(N2CCCC2)n1` the value was 637 s.
In the case of `COCCN(Cc1ccc(F)cc1)Cc1cc(=O)n2cc(Cl)ccc2n1`, the RP-LC retention time is 647 s.
`CCOC(=O)c1noc2ncnc(NCCN(CC)c3cccc(C)c3)c12` came in with an RP-LC retention time of 946 s.
`Cc1ccc(S(=O)(=O)N(C)c2ccc(OCC(=O)N3CCOCC3)cc2)cc1` yielded an RP-LC retention time of 732 s.
For `Cc1ccc(CN2CCC(c3nc(-c4cnccn4)n[nH]3)CC2)s1` the value was 570 s.
Take `Cc1ccc(NC(=O)c2cccc3c2SCCC3=O)nc1`: the RP-LC retention time amounted to 726 s.
`COC(=O)c1ncn2c1C(=O)N(Cc1ccccc1F)C(C)(C(=O)NC1CCCCCC1)C2` (stereo not given) yielded an RP-LC retention time of 816 s.
On to `COc1ccc(Br)c(C(=O)N2CCc3[nH]cnc3C23CCCC3)c1`, for which the RP-LC retention time was 648 s.
`CC(C)(C)NC(=O)N1C[C@@H]2CN(S(=O)(=O)c3cccc(F)c3)C[C@H](C1)O2` yielded an RP-LC retention time of 765 s.
On to `O=S(=O)(c1cccn2c(SCc3ccccc3Cl)nnc12)N1CCCC1`, for which the RP-LC retention time stood at 880 s.
`Cc1ccc(NC(=O)CCc2nc(-c3ccc(N4CCCC4)cc3)no2)c(Br)c1` had an RP-LC retention time of 1170 s.
Molecule `Cc1ccc(NS(=O)(=O)c2ccc3c(c2)C(=O)N(C)c2ncccc2O3)c(F)c1` came in with an RP-LC retention time of 910 s.
The molecule `O=C(c1cccc(F)c1)N1CCC(n2c(-c3ccoc3)nc3cccnc32)C1` (stereo not given) gave an RP-LC retention time of 735 s.
With `O=C(c1ccc(Br)cc1)N1CCc2[nH]nc(C(=O)N3CCOCC3)c2C1` the figure was 661 s; with `O=C(CN1CCN(Cc2ccc(F)cc2Cl)C1=O)NC1CC1`, 692 s.
`COc1ccc2c(c1)C1(CCN(C(=O)c3cccc(Cl)c3)C1)C(=O)N2C` (stereo not given) came in with an RP-LC retention time of 831 s.
`CCN1CCC2(CC1)NC(=O)N(CC(=O)Nc1ccc(OC(F)(F)F)cc1)C2=O` returned an RP-LC retention time of 582 s.
For `COc1cccc2c(SCc3ccccn3)nccc12` the value was 683 s; for `Cc1ccc(C)c(-c2csc(Nc3ccc(S(=O)(=O)Nc4nc(C)cc(C)n4)cc3)n2)c1`, 1030 s; for `CCOc1ccccc1-c1nn2c(CSc3ccccc3)nnc2s1`, 1120 s.
For `Cn1ncc2c3ccccc3n(CC(=O)N3CCC(N4CCCCC4)CC3)c2c1=O`, the RP-LC retention time was found to be 613 s.
Take `CCOc1ccc(-c2csc(Cc3nc(-c4ccc(OC)cc4)no3)n2)cc1`: the RP-LC retention time was 1230 s.
Regarding `Cc1cc(C)c(S(=O)(=O)N2CCC(C(=O)NCCc3csc(-c4ccccc4)n3)CC2)c(C)c1`, the RP-LC retention time stood at 1070 s.
For `COc1ccc(N2CCN(C(=O)CCc3nnc4c5cc(-c6ccccc6)nn5ccn34)CC2)cc1`, the RP-LC retention time was 730 s.
As for `CCOC(=O)c1noc2nc(C)nc(Nc3cccc(OC)c3)c12`, the RP-LC retention time is 801 s.
For `COc1ccc(Cl)cc1C(=O)Nc1cnc(N2CCCC2)nc1` the value was 818 s; for `CSc1ccccc1NC(=O)Cc1csc(NC(=O)c2ncccn2)n1`, 657 s.
Molecule `Cc1ccc(NC(=O)N2CCC3(C2)C(=O)Nc2ccccc23)cc1` (stereo not given) registered an RP-LC retention time of 745 s.
`COc1cccc(C(=O)N2CCC3(CC2)NC(=O)c2cc(Cl)ccc2N3C)c1` gave an RP-LC retention time of 800 s.
In the case of `CCc1cccc(C)c1Nc1c(-c2ccc(OC)cc2)nc2nc(C)cc(C)n12`, the RP-LC retention time was 781 s.
For `Cc1ccc(NC(=O)C2CCN(S(C)(=O)=O)c3ccccc3O2)cc1Cl` (stereo not given) the value was 985 s.
The molecule `CC1=C(c2ccc(C)cc2)S(=O)(=O)N=C1N1CCCN(C(=O)C2CCCCC2)CC1` registered an RP-LC retention time of 600 s.
With `CC(C)Cn1cc(S(=O)(=O)NCc2ccccc2F)c2cccnc21` the figure was 932 s; with `CNC(=O)c1ccc2c(c1)CCCN2S(=O)(=O)c1ccccc1`, 769 s.
Turning to `CC(C)CC(=O)N1CCc2c(c(-c3nncn3C(C)C)nn2C)C1`, the RP-LC retention time turned out to be 682 s.
For `COc1ccccc1-c1ccc(N2CCC(C(=O)NN3CCOCC3)CC2)nn1` the value was 530 s; for `C=CCn1c(=O)c2ccccc2n(Cc2nc(-c3ccc(F)c(Br)c3)no2)c1=O`, 1170 s; for `COCCNC(=O)NC1CCN(c2nc3cccnc3n(Cc3ccccc3)c2=O)CC1`, 806 s.
As for `Cc1cc(C)n2nc(SCC(=O)NC3CCCCC3)nc2n1`, the RP-LC retention time was 693 s.
Consider `Cc1nn(-c2ccc(-c3ccccc3)nn2)c(C)c1S(=O)(=O)N1CCCCC1`, for which the RP-LC retention time amounted to 1090 s.
In turn, `COc1ccc(Cl)cc1NC(=O)NCCC1CCN(S(=O)(=O)c2ccccc2)CC1` returned an RP-LC retention time of 1010 s.
With `O=C(c1cccc(Cl)c1)N1CCc2cc(-c3ccno3)ccc21`, the RP-LC retention time worked out at 999 s.
Turning to `O=C(Cn1c(CN2CCCCC2)nc2ccccc21)N1CCOCC1`, the RP-LC retention time was 583 s.
The molecule `CCCNC(=O)C1CCN(S(=O)(=O)c2cc(C(=O)N3CCCC3)n(C)c2)CC1` returned an RP-LC retention time of 648 s.
With `CCc1nc2ccccc2c(=O)n1Cc1noc(COc2ccc(OC)cc2)n1` the figure was 921 s; with `CCCCNC(=O)Cn1c(=O)c2cnc(-c3ccc(Cl)cc3)nc2n(C)c1=O`, 982 s; with `Cc1ccc(-n2c(=O)c3c(cc(C)n3C)n(CC(=O)Nc3ccc4c(c3)OCO4)c2=O)cc1`, 819 s.
With `CN1C(=O)c2cc(C(=O)NCc3ccc(F)cc3)nn2CC1(C)C(=O)NC1CCCC1` (stereo not given) the figure was 747 s.
For `Cc1cccc(-c2ncccc2CNS(=O)(=O)c2ccc(C#N)cc2)c1` the value was 697 s.
The molecule `O=S(=O)(Nc1cc(F)cc(F)c1)c1ccc(-c2nnc(C3CCC3)o2)o1` returned an RP-LC retention time of 930 s.
In the case of `Cc1ccc(OCC(O)Cn2c(C3CC3)nc3ccccc32)cc1` (stereo not given), the RP-LC retention time turned out to be 697 s.
Turning to `Cn1cc(C(CNC(=O)Nc2ccc(Br)cc2F)c2cccnc2)c2ccccc21` (stereo not given), the RP-LC retention time came out at 781 s.
For `O=C(NCc1csc(-c2cccs2)n1)C1CCN(S(=O)(=O)c2ccc(Cl)s2)CC1` the value was 957 s; for `Cc1ccc(C)c(NC(=O)N2CC(c3nc(C)no3)C3(CCOCC3)C2)c1` (stereo not given), 693 s.
As to `CS(=O)(=O)c1ccc(CC(=O)Nc2nnc(C3CCCO3)o2)cc1` (stereo not given), the RP-LC retention time was 578 s.
As for `O=C(Nc1ccc(-c2nnc3n2CCCC3)cc1)c1ccc(Cl)cc1`, the RP-LC retention time was 724 s.
With `Cn1ccc2c(cc(C(=O)N3CCN(c4ccccn4)CC3)n2C)c1=O` the figure was 560 s; with `CCc1ccc(-c2noc(CSc3nc4cc5c(cc4c(=O)n3CC3CCCO3)OCO5)n2)cc1` (stereo not given), 1280 s.
For the molecule `CCC(=O)N1CCc2cc(N3CC(C(=O)N4CCN(c5ccccn5)CC4)CC3=O)ccc21` (stereo not given), the RP-LC retention time came to 584 s.
For `O=C(Nc1c(F)c(F)c(F)c(F)c1F)c1cc2sccc2n1Cc1ccc(F)cc1` the value was 1180 s.
Take `CCCN1C(=O)c2c(C(=O)NCc3cccc(F)c3)ncn2CC1(C)C(=O)NCCC(C)C` (stereo not given): the RP-LC retention time came out at 843 s.
On to `O=C(COc1cccc(Cl)c1)N1CCN(c2nc(CN3CCOCC3)cs2)CC1`, for which the RP-LC retention time worked out at 721 s.
`O=C(CN1C(=O)CSc2ccc(C(=O)N3CCCC3)cc21)NC1CCCCCCC1` had an RP-LC retention time of 760 s.
For `CCCCN(C)C(=O)C1CCC(=O)N(c2cc(OC)c(OC)c(OC)c2)C1c1ccc(OC)cc1` (stereo not given), the RP-LC retention time came to 768 s.
